Results taken from US8084649B2, “Herbicides” (Syngenta Crop Protection, inc., priority 2007, dated 2011).

The compounds below were run on Digitaria sanguinalis (DIGSA) (assay: Pre-emergence herbicidal activity, glasshouse pot test). Conditions: Digitaria sanguinalis, 480 h, rate 500 g/ha, evaluated after 20 days, read-out: Pre-emergence activity, DIGSA (100=total damage to plant; 0=no damage to plant).
Type: in vivo
Procedure: (§1) Monocotyledonous and dicotyledonous test plants were sown in sterilised standard soil in pots. After cultivation for one day (pre-emergence) or after 10 days cultivation (post-emergence) under controlled conditions in a glasshouse, the plants were sprayed with an aqueous spray solution derived from the formulation of the technical active ingredient in 0.6 ml acetone and 45 ml formulation solution containing 10.6% Emulsogen EL (Registry number 61791-12-6), 42.2% N-methylpyrrolidone, 42.2% dipropylene glycol monomethyl ether (Registry number 34590-94-8) and 0.2% X-77 (Registry number 11097-66-8). The test plants were then grown in a greenhouse under optimum conditions until, 14 or 15 days later for post-emergence and 20 days for pre-emergence, the test was evaluated (100=total damage to plant; 0=no damage to plant). Alopecurus myosuroides (ALOMY), Avena fatua (AVEFA), Lolium perenne (LOLPE), Setaria faberi (SETFA), Digitaria sanguinalis (DIGSA), Echinochloa crus-galli (ECHCG) Pre-Emergence Activity
With CSC(C)CC1CC(=O)C(c2c(C)cc(C)cc2C)=C(O)C1 (stereo not drawn) [Compound T18] the pest or weed control at 500 g/ha was 60%. For CCc1cc(C)cc(CC)c1C1=C(O)CC2(CC[S+]([O-])CC2)CC1=O (stereo not drawn) [Compound T52], the pest or weed control at 500 g/ha was 70%.

Same assay, conditions: rate 500 g/ha, evaluated after 20 days
For CCc1cc(C)cc(CC)c1C1=C(O)CC(CCS(C)(=O)=O)CC1=O (stereo not drawn) [Compound T31], the “Pre-emergence activity, DIGSA (100=total damage to plant; 0=no damage to plant)” value was 100.

These compounds were tested on Lolium perenne (LOLPE) in the same assay as above. Conditions: Lolium perenne, 480 h, rate 500 g/ha, evaluated after 20 days, read-out: Pre-emergence activity, LOLPE (100=total damage to plant; 0=no damage to plant).
Type: in vivo
Procedure: as §1
In the case of CSC(C)CC1CC(=O)C(c2c(C)cc(C)cc2C)=C(O)C1 (stereo not drawn) [Compound T18], the pest or weed control at 500 g/ha is reported as 10%. CCc1cc(C)cc(CC)c1C1=C(O)CC2(CC[S+]([O-])CC2)CC1=O (stereo not drawn) [Compound T52] was tested, and the pest or weed control at 500 g/ha was 100%.

Same assay, conditions: rate 500 g/ha, evaluated after 20 days
With CCc1cc(C)cc(CC)c1C1=C(O)CC(CCS(C)(=O)=O)CC1=O (stereo not drawn) [Compound T31] the “Pre-emergence activity, LOLPE (100=total damage to plant; 0=no damage to plant)” value was 100.

What follows are compounds tested on Avena fatua (AVEFA) in the same assay as above. Conditions: Avena fatua, 480 h, rate 500 g/ha, evaluated after 20 days, read-out: Pre-emergence activity, AVEFA (100=total damage to plant; 0=no damage to plant).
Type: in vivo
Procedure: as §1
With CSC(C)CC1CC(=O)C(c2c(C)cc(C)cc2C)=C(O)C1 (stereo not drawn) [Compound T18] the pest or weed control at 500 g/ha was 10%. Compound CCc1cc(C)cc(CC)c1C1=C(O)CC2(CC[S+]([O-])CC2)CC1=O (stereo not drawn) [Compound T52] has a pest or weed control at 500 g/ha of 100%.

Same assay, conditions: rate 500 g/ha, evaluated after 20 days
With CCc1cc(C)cc(CC)c1C1=C(O)CC(CCS(C)(=O)=O)CC1=O (stereo not drawn) [Compound T31] the “Pre-emergence activity, AVEFA (100=total damage to plant; 0=no damage to plant)” value was 80.

Each compound was assayed on Echinochloa crus-galli (ECHCG) in the same assay as above. Conditions: Echinochloa crus-galli, 480 h, rate 500 g/ha, evaluated after 20 days, read-out: Pre-emergence activity, ECHCG (100=total damage to plant; 0=no damage to plant).
Type: in vivo
Procedure: as §1
With CSC(C)CC1CC(=O)C(c2c(C)cc(C)cc2C)=C(O)C1 (stereo not drawn) [Compound T18] the pest or weed control at 500 g/ha was 70%. CCc1cc(C)cc(CC)c1C1=C(O)CC2(CC[S+]([O-])CC2)CC1=O (stereo not drawn) [Compound T52] was tested, and the pest or weed control at 500 g/ha was 10%.

Same assay, conditions: rate 500 g/ha, evaluated after 20 days
For CCc1cc(C)cc(CC)c1C1=C(O)CC(CCS(C)(=O)=O)CC1=O (stereo not drawn) [Compound T31], the “Pre-emergence activity, ECHCG (100=total damage to plant; 0=no damage to plant)” value was 100.

The compounds below were run on Alopecurus myosuroides (ALOMY) in the same assay as above. Conditions: Alopecurus myosuroides, 480 h, rate 500 g/ha, evaluated after 20 days, read-out: Pre-emergence activity, ALOMY (100=total damage to plant; 0=no damage to plant).
Type: in vivo
Procedure: as §1
For CSC(C)CC1CC(=O)C(c2c(C)cc(C)cc2C)=C(O)C1 (stereo not drawn) [Compound T18], the pest or weed control at 500 g/ha was 20%. CCc1cc(C)cc(CC)c1C1=C(O)CC2(CC[S+]([O-])CC2)CC1=O (stereo not drawn) [Compound T52] was tested, and the pest or weed control at 500 g/ha was 90%.

Same assay, conditions: rate 500 g/ha, evaluated after 20 days
For CCc1cc(C)cc(CC)c1C1=C(O)CC(CCS(C)(=O)=O)CC1=O (stereo not drawn) [Compound T31], the “Pre-emergence activity, ALOMY (100=total damage to plant; 0=no damage to plant)” value was 80.

The compounds below were run on Setaria faberi (SETFA) in the same assay as above. Conditions: Setaria faberi, 480 h, rate 500 g/ha, evaluated after 20 days, read-out: Pre-emergence activity, SETFA (100=total damage to plant; 0=no damage to plant).
Type: in vivo
Procedure: as §1
In the case of CSC(C)CC1CC(=O)C(c2c(C)cc(C)cc2C)=C(O)C1 (stereo not drawn) [Compound T18], the pest or weed control at 500 g/ha is reported as 40%. Work on CCc1cc(C)cc(CC)c1C1=C(O)CC2(CC[S+]([O-])CC2)CC1=O (stereo not drawn) [Compound T52] yielded a pest or weed control at 500 g/ha of 70%.

Same assay, conditions: rate 500 g/ha, evaluated after 20 days
For CCc1cc(C)cc(CC)c1C1=C(O)CC(CCS(C)(=O)=O)CC1=O (stereo not drawn) [Compound T31], the “Pre-emergence activity, SETFA (100=total damage to plant; 0=no damage to plant)” value was 100.

What follows are compounds tested on Digitaria sanguinalis (DIGSA) (assay: Post-emergence herbicidal activity, glasshouse pot test). Conditions: Digitaria sanguinalis, rate 125 g/ha, evaluated after 14 or 15 days, read-out: Post-emergence activity, DIGSA (100=total damage to plant; 0=no damage to plant).
Type: in vivo
Procedure: as §1, with “Post-Emergence” for “Pre-Emergence”
Work on CCc1cc(C)cc(CC)c1C1=C(O)CC2(CC[S+]([O-])CC2)CC1=O (stereo not drawn) [Compound T52] yielded a pest or weed control at 125 g/ha of 60%.

Same assay, conditions: Digitaria sanguinalis, rate 500 g/ha, evaluated after 14 or 15 days, read-out: Post-emergence activity, DIGSA (100=total damage to plant; 0=no damage to plant)
Compound CSC(C)CC1CC(=O)C(c2c(C)cc(C)cc2C)=C(O)C1 (stereo not drawn) [Compound T18] has a pest or weed control at 500 g/ha of 80%.

Same assay, conditions: rate 500 g/ha, evaluated after 14 or 15 days
With CCc1cc(C)cc(CC)c1C1=C(O)CC(CCS(C)(=O)=O)CC1=O (stereo not drawn) [Compound T31] the “Post-emergence activity, DIGSA (100=total damage to plant; 0=no damage to plant)” value was 100.

What follows are compounds tested on Lolium perenne (LOLPE) in the same assay as above. Conditions: Lolium perenne, rate 125 g/ha, evaluated after 14 or 15 days, read-out: Post-emergence activity, LOLPE (100=total damage to plant; 0=no damage to plant).
Type: in vivo
Procedure: as §1, with “Post-Emergence” for “Pre-Emergence”
Work on CCc1cc(C)cc(CC)c1C1=C(O)CC2(CC[S+]([O-])CC2)CC1=O (stereo not drawn) [Compound T52] yielded a pest or weed control at 125 g/ha of 40%.

Same assay, conditions: Lolium perenne, rate 500 g/ha, evaluated after 14 or 15 days, read-out: Post-emergence activity, LOLPE (100=total damage to plant; 0=no damage to plant)
Compound CSC(C)CC1CC(=O)C(c2c(C)cc(C)cc2C)=C(O)C1 (stereo not drawn) [Compound T18] has a pest or weed control at 500 g/ha of 70%.

Same assay, conditions: rate 500 g/ha, evaluated after 14 or 15 days
In the case of CCc1cc(C)cc(CC)c1C1=C(O)CC(CCS(C)(=O)=O)CC1=O (stereo not drawn) [Compound T31], the “Post-emergence activity, LOLPE (100=total damage to plant; 0=no damage to plant)” value is reported as 90.

The compounds below were run on Avena fatua (AVEFA) in the same assay as above. Conditions: Avena fatua, rate 125 g/ha, evaluated after 14 or 15 days, read-out: Post-emergence activity, AVEFA (100=total damage to plant; 0=no damage to plant).
Type: in vivo
Procedure: as §1, with “Post-Emergence” for “Pre-Emergence”
With CCc1cc(C)cc(CC)c1C1=C(O)CC2(CC[S+]([O-])CC2)CC1=O (stereo not drawn) [Compound T52] the pest or weed control at 125 g/ha was 60%.

Same assay, conditions: Avena fatua, rate 500 g/ha, evaluated after 14 or 15 days, read-out: Post-emergence activity, AVEFA (100=total damage to plant; 0=no damage to plant)
Compound CSC(C)CC1CC(=O)C(c2c(C)cc(C)cc2C)=C(O)C1 (stereo not drawn) [Compound T18] has a pest or weed control at 500 g/ha of 60%.

Same assay, conditions: rate 500 g/ha, evaluated after 14 or 15 days
CCc1cc(C)cc(CC)c1C1=C(O)CC(CCS(C)(=O)=O)CC1=O (stereo not drawn) [Compound T31] was tested, and the “Post-emergence activity, AVEFA (100=total damage to plant; 0=no damage to plant)” value was 60.

Each compound was assayed on Echinochloa crus-galli (ECHCG) in the same assay as above. Conditions: Echinochloa crus-galli, rate 125 g/ha, evaluated after 14 or 15 days, read-out: Post-emergence activity, ECHCG (100=total damage to plant; 0=no damage to plant).
Type: in vivo
Procedure: as §1, with “Post-Emergence” for “Pre-Emergence”
With CCc1cc(C)cc(CC)c1C1=C(O)CC2(CC[S+]([O-])CC2)CC1=O (stereo not drawn) [Compound T52] the pest or weed control at 125 g/ha was 30%.

Same assay, conditions: Echinochloa crus-galli, rate 500 g/ha, evaluated after 14 or 15 days, read-out: Post-emergence activity, ECHCG (100=total damage to plant; 0=no damage to plant)
CSC(C)CC1CC(=O)C(c2c(C)cc(C)cc2C)=C(O)C1 (stereo not drawn) [Compound T18] showed a pest or weed control at 500 g/ha of 70%.

Same assay, conditions: rate 500 g/ha, evaluated after 14 or 15 days
With CCc1cc(C)cc(CC)c1C1=C(O)CC(CCS(C)(=O)=O)CC1=O (stereo not drawn) [Compound T31] the “Post-emergence activity, ECHCG (100=total damage to plant; 0=no damage to plant)” value was 100.

The compounds below were run on Alopecurus myosuroides (ALOMY) in the same assay as above. Conditions: Alopecurus myosuroides, rate 125 g/ha, evaluated after 14 or 15 days, read-out: Post-emergence activity, ALOMY (100=total damage to plant; 0=no damage to plant).
Type: in vivo
Procedure: as §1, with “Post-Emergence” for “Pre-Emergence”
CCc1cc(C)cc(CC)c1C1=C(O)CC2(CC[S+]([O-])CC2)CC1=O (stereo not drawn) [Compound T52] was tested, and the pest or weed control at 125 g/ha was 60%.

Same assay, conditions: Alopecurus myosuroides, rate 500 g/ha, evaluated after 14 or 15 days, read-out: Post-emergence activity, ALOMY (100=total damage to plant; 0=no damage to plant)
Work on CSC(C)CC1CC(=O)C(c2c(C)cc(C)cc2C)=C(O)C1 (stereo not drawn) [Compound T18] yielded a pest or weed control at 500 g/ha of 60%.

Same assay, conditions: rate 500 g/ha, evaluated after 14 or 15 days
For CCc1cc(C)cc(CC)c1C1=C(O)CC(CCS(C)(=O)=O)CC1=O (stereo not drawn) [Compound T31], the “Post-emergence activity, ALOMY (100=total damage to plant; 0=no damage to plant)” value was 80.

Each compound was assayed on Setaria faberi (SETFA) in the same assay as above. Conditions: Setaria faberi, rate 125 g/ha, evaluated after 14 or 15 days, read-out: Post-emergence activity, SETFA (100=total damage to plant; 0=no damage to plant).
Type: in vivo
Procedure: as §1, with “Post-Emergence” for “Pre-Emergence”
In the case of CCc1cc(C)cc(CC)c1C1=C(O)CC2(CC[S+]([O-])CC2)CC1=O (stereo not drawn) [Compound T52], the pest or weed control at 125 g/ha is reported as 20%.

Same assay, conditions: Setaria faberi, rate 500 g/ha, evaluated after 14 or 15 days, read-out: Post-emergence activity, SETFA (100=total damage to plant; 0=no damage to plant)
With CSC(C)CC1CC(=O)C(c2c(C)cc(C)cc2C)=C(O)C1 (stereo not drawn) [Compound T18] the pest or weed control at 500 g/ha was 80%.

Same assay, conditions: rate 500 g/ha, evaluated after 14 or 15 days
CCc1cc(C)cc(CC)c1C1=C(O)CC(CCS(C)(=O)=O)CC1=O (stereo not drawn) [Compound T31] was tested, and the “Post-emergence activity, SETFA (100=total damage to plant; 0=no damage to plant)” value was 100.
